Values after ≈ are worked out from the molar mass of the structure shown. Active and inactive are the calls of the source. The rule behind the calls is not given here.
Experiments:
Plasmodium falciparum [1] = assay: Antiplasmodial activity against Plasmodium falciparum Dd2 infected in erythrocytes assessed as inhibition of parasite growth incubated for 72 hrs by [3H]hypoxanthine incorporation based microbeta counting analysis; format: functional, organism-based; conditions: Dd2, Erythrocyte
Plasmodium falciparum [2] = assay: Antiplasmodial activity against multidrig-resistant Plasmodium falciparum Dd2 harboring eEF2Y-I86N mutant infected in erythrocytes assessed as inhibition of parasite growth incubated for 72 hrs by [3H]hypoxanthine incorporation based microbeta counting analysis; format: functional, organism-based; conditions: Dd2, Erythrocyte
Plasmodium berghei [3] = assay: Antimalarial activity against asexual blood stage of Plasmodium berghei ANKA infected in Balb/c mouse assessed as reduction in parasitemia at 30 mg/kg, po qd administered at 2 hrs post-infection on day 0 and then on days 1,2 and 3 post-infection and measured on day 2 to 4 post-infection; format: functional, organism-based; conditions: time 3-5 day
Plasmodium berghei [4] = assay: (§1) Antimalarial activity against asexual blood stage of Plasmodium berghei ANKA infected in Balb/c mouse assessed as reduction in parasitemia at 30 mg/kg, po qd administered at 2 hrs post-infection on day 0 and then on days 1,2 and 3 post-infection and measured on day 4 to 7 post-infection by peter's test; format: functional, organism-based; conditions: time 5-8 day
Plasmodium falciparum [5] = assay: Antiplasmodial activity against multidrug-resistant Plasmodium falciparum Dd2 harboring DHODH-C276F mutant infected in erythrocytes assessed as inhibition of parasite growth incubated for 72 hrs by [3H]hypoxanthine incorporation based microbeta counting analysis; format: functional, organism-based; conditions: Dd2, Erythrocyte
[6] = Intrinsic clearance in rat hepatocytes at 1 uM measured per million cells for 90 mins by LC-MS/MS analysis; format: ADME, cell-based, Hepatocyte; conditions: read-out: CLH
[7] = Cytotoxicity against human HepG2 cells assessed as inhibition of cell growth incubated for 48 hrs by CellTiter-Glo luminescence assay; format: toxicity, cell-based
[8] = Intrinsic clearance in human liver microsomes at 1 uM measured for 60 mins by LC-MS/MS analysis; format: ADME, Microsome; conditions: read-out: CLH
Plasmodium falciparum [9] = assay: Antiplasmodial activity against asexual blood stage of Plasmodium falciparum 3D7 assessed as inhibition of parasite growth incubated for 72 hrs by LDH assay; format: functional, organism-based; conditions: 3D7, 72 h
[10] = Lipophilicity, elogD of the compound in 1-Octanol/PBS at pH 7.4 at 7.5 uM incubated for 2 hrs by miniaturized shake flask method; format: physicochemical
[11] = Aqueous solubility of the compound in PBS buffer at pH 7.4 at 200 uM incubated for 2 hrs under shaking condition by miniaturized shake flask method; format: physicochemical
Plasmodium falciparum [12] = assay: Antiplasmodial activity against multidrug-resistant Plasmodium falciparum Dd2 harboring cyt b-I22L mutant infected in erythrocytes assessed as inhibition of parasite growth incubated for 72 hrs by [3H]hypoxanthine incorporation based microbeta counting analysis; format: functional, organism-based; conditions: Dd2, Erythrocyte
Plasmodium falciparum [13] = assay: Antiplasmodial activity against multidrug-resistant Plasmodium falciparum Dd2 harboring CARL-I1139K mutant infected in erythrocytes assessed as inhibition of parasite growth incubated for 72 hrs by [3H]hypoxanthine incorporation based microbeta counting analysis; format: functional, organism-based; conditions: Dd2, Erythrocyte
Plasmodium falciparum [14] = assay: Antiplasmodial activity against ring stage of Plasmodium falciparum 3D7 expressing ABCI3-HAreg assessed as inhibition of parasite proliferation incubated for 72 hrs in presence of ABCI3 inhibitor, GlcN by SYBR dye based flow cytometry; format: functional, organism-based; conditions: 3D7, 72 h
Plasmodium falciparum [15] = assay: Antiplasmodial activity against multidrug-resistant Plasmodium falciparum Dd2 harboring PI4K-S743F mutant infected in erythrocytes assessed as inhibition of parasite growth incubated for 72 hrs by [3H]hypoxanthine incorporation based microbeta counting analysis; format: functional, organism-based; conditions: Dd2, Erythrocyte
Plasmodium berghei [16] = assay: Antimalarial activity against asexual blood stage of Plasmodium berghei ANKA infected in Balb/c mouse assessed as reduction in parasitemia at 25 mg/kg, po qd administered at 2 hrs post-infection on day 0 and then on days 1,2 and 3 post-infection and measured on day 2 to 4 post-infection; format: functional, organism-based; conditions: time 3-5 day
[17] = Toxicity in Balb/c mouse infected with asexual blood stage of Plasmodium berghei ANKA assessed as adverse effects at 25 mg/kg, po administered at 2 hrs post-infection on day 0 and then on days 1,2 and 3; format: organism-based; conditions: in vivo, 96 h, time 4 day
Plasmodium berghei [18] = assay: as §1, with “25” for “30”, “5” for “4”, “test relative to control” for “test”; format: functional; conditions: time 6-8 day
[19] = Toxicity in Balb/c mouse infected with asexual blood stage of Plasmodium berghei ANKA assessed as body weight at 25 mg/kg, po qd administered at 2 hrs post-infection on day 0 and then on days 1,2 and 3; format: organism-based; conditions: in vivo, 96 h, time 4 day
[20] = Intrinsic clearance in mouse liver microsomes at 1 uM measured for 60 mins by LC-MS/MS analysis; format: ADME, Microsome; conditions: read-out: CLH
Plasmodium falciparum [21] = assay: Antiplasmodial activity against ring stage of Plasmodium falciparum 3D7 expressing ABCI3-HAreg assessed as inhibition of parasite proliferation incubated for 72 hrs in absence of ABCI3 inhibitor, GlcN by SYBR dye based flow cytometry; format: functional, organism-based; conditions: 3D7, 72 h
Plasmodium falciparum [22] = assay: Antiplasmodial activity against multidrug-resistant Plasmodium falciparum Cam3.1 infected in erythrocytes assessed as inhibition of parasite growth incubated for 72 hrs by [3H]hypoxanthine incorporation based microbeta counting analysis; format: functional, organism-based; conditions: Cam3.1, Erythrocyte
Plasmodium falciparum [23] = assay: Antimalarial activity against asexual stage of Plasmodium falciparum 3D7 infected in erythrocytes assessed as parasite killing at 10XEC50 incubated for 48 hrs with compound renewal for every 24 hrs followed by drug removal and incubation for 48 hrs with CFDA-SE labelled fresh erythrocytes by Hoechst 33342 staining based two-color flow cytometry; format: functional, organism-based; conditions: Erythrocyte
[24] = Ratio of EC50 for antiplasmodial activity against ring stage of Plasmodium falciparum 3D7 expressing ABCI3-HAreg in absence of ABCI3 inhibitor, GlcN to EC50 for antiplasmodial activity against ring stage of Plasmodium falciparum 3D7 expressing ABCI3-HAreg in presence of ABCI3 inhibitor, GlcN; format: functional
Plasmodium falciparum [25] = assay: Antiplasmodial activity against multidrug-resistant Plasmodium falciparum K1 infected in erythrocytes assessed as inhibition of parasite growth incubated for 72 hrs by [3H]hypoxanthine incorporation based microbeta counting analysis; format: functional, organism-based; conditions: K1, Erythrocyte
Plasmodium falciparum [26] = assay: Antiplasmodial activity against multidrug-resistant Plasmodium falciparum NF54 infected in erythrocytes assessed as inhibition of parasite growth incubated for 72 hrs by [3H]hypoxanthine incorporation based microbeta counting analysis; format: functional, organism-based; conditions: NF54, Erythrocyte
Plasmodium falciparum [27] = assay: Antiplasmodial activity against multidrug-resistant Plasmodium falciparum 7G8 infected in erythrocytes assessed as inhibition of parasite growth incubated for 72 hrs by [3H]hypoxanthine incorporation based microbeta counting analysis; format: functional, organism-based; conditions: 7G8, Erythrocyte
Plasmodium falciparum [28] = assay: Antimalarial activity against asexual stage of Plasmodium falciparum 3D7 infected in erythrocytes assessed as lag phase of parasite growth at 10XEC50 incubated for 24 hrs followed by drug removal and incubation for 48 hrs with CFDA-SE labelled fresh erythrocytes by Hoechst 33342 staining based two-color flow cytometry; format: functional, organism-based; conditions: Erythrocyte
Plasmodium falciparum [29] = assay: Antiplasmodial activity against multidrug-resistant Plasmodium falciparum TM90-C2B infected in erythrocytes assessed as inhibition of parasite growth incubated for 72 hrs by [3H]hypoxanthine incorporation based microbeta counting analysis; format: functional, organism-based; conditions: Erythrocyte

Structure (SMILES)	EC50 (Plasmodium falciparum [1]) [nM]	hepatocyte CLint at 1 µM [6] [µL/min/1e6 cells]	CC50 at 48 h [7] [nM]	microsomal CLint at 1 µM [8] [µL/min/mg]	EC50 (Plasmodium falciparum [9]) [nM]	logD at 2 h, 7.5 µM [10]	solubility thermodynamic at 2 h, 200 µM [11] [µM]	further results
O=C(NCCN1CCCC1)c1cc(-c2ccc(CN3CCOCC3)cc2)nc2ccc(F)cc12 [CABAMIQUINE]	1	–	–	–	–	–	–	EC50 (Plasmodium falciparum [2]): 850 nM
C[C@H]1[C@H](OC(=O)CCC(=O)O)O[C@@H]2O[C@@]3(C)CC[C@H]4[C@H](C)CC[C@@H]1[C@@]24OO3	–	–	–	–	–	–	–	Activity (Plasmodium berghei [3]): Active; Activity (Plasmodium berghei [4]): inactive
Cc1cc(Nc2ccc(S(F)(F)(F)(F)F)cc2)n2nc(C(C)(F)F)nc2n1 [DSM-265]	6	–	–	–	–	–	–	EC50 (Plasmodium falciparum [5]): 100 nM
COc1nn(C(C)(C)C)c2nc(C3CC3)cc(C(=O)N3CCOc4ccncc43)c12	–	87	7260	423	5	5.1	19 (≈ 7.74 µg/mL)	–
COc1cc2[nH]c(C)c(-c3ccc(Oc4ccc(OC(F)(F)F)cc4)cc3)c(=O)c2cc1Cl	14	–	–	–	–	–	–	EC50 (Plasmodium falciparum [12]): 120 nM
Cc1nn(C(C)(C)C)c2nc(C3CC3)cc(C(=O)N3CCN(C)c4ccccc43)c12	–	65	> 40000	387	257	5.4	3 (≈ 1.21 µg/mL)	–
Cc1nn(C(C)C)c2nc(C3CC3)cc(C(=O)N3CCOc4ccccc43)c12	–	> 92	> 40000	424	310	4.5	10 (≈ 3.76 µg/mL)	–
COc1nn(C(C)C)c2nc(C3CC3)cc(C(=O)N3CCOc4ccncc43)c12	–	> 92	28700	> 462	15	3.7	161 (≈ 63.3 µg/mL)	–
COc1nn(C(C)(C)C)c2nc(C3CC3)cc(C(=O)N3CCOc4ccccc43)c12	–	19	> 40000	300	123	> 6.4	< 2.5	–
CC1(C)c2nc(-c3ccc(F)cc3)c(Nc3ccc(F)cc3)n2CCN1C(=O)CN [GANAPLACIDE]	17	–	–	–	–	–	–	EC50 (Plasmodium falciparum [13]): 1920 nM
CCN(CC)CCCC(C)Nc1ccnc2cc(Cl)ccc12 (stereo unspecified) [CHLOROQUINE]	–	–	–	–	–	–	–	EC50 (Plasmodium falciparum [14]): 11.3 nM
CC(C)(C)n1nc(Cl)c2c(C(=O)N3CCOc4ccccc43)cc(C3CC3)nc21	–	34	> 40000	155	260	> 5.9	< 2.5	–
Cc1nn(C(C)(C)C)c2nc(C3CC3)cc(C(=O)N3CCOc4cc(F)ccc43)c12	–	23	> 10000	160	1050	5.9	< 2.5	–
Cc1nn(C(C)(C)C)c2nc(C3CC3)cc(C(=O)N3CCCc4ccccc43)c12	–	45	> 40000	277	164	5.9	2.8 (≈ 1.09 µg/mL)	–
CS(=O)(=O)c1ccc(-c2cnc(N)c(-c3ccc(C(F)(F)F)nc3)c2)cc1 [MMV-048]	12	–	–	–	–	–	–	EC50 (Plasmodium falciparum [15]): 90 nM
Cc1nn(C(C)C)c2nc(C3CC3)cc(C(=O)N3CCOc4ccncc43)c12	–	30	17600	27	19	4.5	199 (≈ 75.1 µg/mL)	Activity (Plasmodium berghei [16]): inactive; Activity [17]: Non-Toxic; inhibition in vivo at 25 mg/kg (Plasmodium berghei [18]): ~50%; Activity [19]: Non-Toxic; microsomal CLint at 1 µM [20]: 323 µL/min/mg
Cc1nn(C(C)(C)C)c2nc(C3CC3)cc(C(=O)N3CCOc4ccc(F)cc43)c12	–	22	9670	100	130	5.8	2.8 (≈ 1.14 µg/mL)	–
Cc1nn(C(C)(C)C)c2nc(C3CC3)cc(C(=O)N3CCOc4ccccc43)c12	88	49	> 40000	206	130	5.4	< 2.5	EC50 (Plasmodium falciparum [21]): 47.6 nM; EC50 (Plasmodium falciparum [22]): 89 nM; Activity (Plasmodium falciparum [23]): Active; Ratio EC50 [24]: 3.4; EC50 (Plasmodium falciparum [15]): 101 nM; EC50 (Plasmodium falciparum [25]): 134 nM; EC50 (Plasmodium falciparum [12]): 91 nM; EC50 (Plasmodium falciparum [26]): 46 nM; EC50 (Plasmodium falciparum [27]): 114 nM; Activity (Plasmodium falciparum [28]): Active; EC50 (Plasmodium falciparum [14]): 13.9 nM; EC50 (Plasmodium falciparum [2]): 104 nM; EC50 (Plasmodium falciparum [13]): 79 nM; EC50 (Plasmodium falciparum [29]): 119 nM; EC50 (Plasmodium falciparum [5]): 105 nM
Cc1nn(C(C)(C)C)c2nc(C3CC3)cc(C(=O)N3CCNc4ccccc43)c12	–	123	> 40000	471	181	4.8	3.5 (≈ 1.36 µg/mL)	–

— ChEMBL document CHEMBL5608197, “Optimization of pyrazolopyridine 4-carboxamides with potent antimalarial activity for which resistance is associated with the P. falciparum transporter ABCI3” (Eur J Med Chem, 2024)
